Test results taken from patent publication US20190194621A1, “MEDIUM FOR CULTURING STEM CELLS, METHOD FOR CULTURING STEM CELLS, GROWTH PROMOTER FOR STEM CELLS, AND CELL COMPOSITION AND METHOD FOR PRODUCING SAME” (KYOWA HAKKO BIO CO., LTD., priority 2016, published 2019).

System: human iPS cell 253G1 cell line
Assay: Culture of human iPS cells in growth-factor-free medium with added compound; count of Hoechst-stained nuclei and OCT3/4 positive cells
Format: cell-based
Conditions: for number of nuclei counted, increase as compared with the medium to which no growth factor was added (−GF) / expression ratio of OCT3/4 (proportion of Oct3/4 positive cells among Hoechst 33342 stained cells): 5 μM HA100, 0.05 μM DZNep or 0.01 nM TTNPB in growth-factor-free medium; for number of nuclei counted, increase as compared with the medium to which no growth factor was added (−GF): 3 days, 37° C., 10% CO2, average of four experiments; for expression ratio of OCT3/4 (proportion of Oct3/4 positive cells among Hoechst 33342 stained cells): +GF = 2 ng/mL activin A and 5 ng/mL bFGF
Protocol: A medium obtained by adding and dissolving separate components shown in the following Table 1 sterilized through a 0.22 μm filter, 10 μg/mL insulin (manufactured by Sigma-Aldrich Co. LLC.), 5 μg/mL apotransferrin (manufactured by Sigma-Aldrich Co. LLC.), and oleic acid-conjugated recombinant human serum albumin (manufactured by Sigma-Aldrich Co. LLC.) in a known medium (mESF Basal Medium, manufactured by Wako Pure Chemical Industries, Ltd.) was used as a medium in a negative control group. A medium obtained by adding 5 μM HA100 that is a ROCK inhibitor and a PKC inhibitor, 0.05 μM DZNep that is a histone methyltransferase inhibitor, or 0.01 nM TTNPB that is a retinoic acid receptor agonist to the medium of the negative control group was used as a medium in an evaluation target group. Further, a medium obtained by adding 2 ng/mL activin A (manufactured by Wako Pure Chemical Industries, Ltd.) and 5 ng/mL bFGF (manufactured by Wako Pure Chemical Industries, Ltd.) to the medium of the negative control group was used as a medium of a positive control group. The prepared medium in the negative control group, media in the evaluation target group (the medium obtained by adding HA100 to the medium in the negative control group, the medium obtained by adding DZNep to the medium in the negative control group, and the medium obtained by adding TTNPB to the medium in the negative control group), and medium in the positive control group were added to a 24-well plate for cell culture (manufactured by Sumitomo Bakelite Company Limited) at 1 mL/well, and a human iPS cell 253G1 cell line (established by Center for iPS Cell Research and Application, Kyoto University and obtained from iPS Academia Japan, Inc.) was cultured in the presence of 10% CO2 at 37° C. for 3 days. With respect to the cultured cells, the nuclei were stained with Hoechst 33342 (manufactured by Dojindo Laboratories). Further, OCT3/4 protein in the cells was stained with OCT-3/4 antibody C-10 (manufactured by Santa Cruz Biotechnology) and […] anti-mouse IgG (H+L) Secondary Antibod Alexa Fluor 488 conjugate (manufactured by Invitorogen Co.). Thereafter, the number of stained nuclei and the number of Oct3/4 positive cells were counted using In cell analyzer (manufactured by GE Healthcare, Inc.).

SMILES: Nc1nccc2c1ncn2C1C=C(CO)C(O)C1O (stereo not shown) [DZNep, 3-deazaneplanocin]
- number of nuclei counted, increase as compared with the medium to which no growth factor was added (−GF): 1.35 times
- expression ratio of OCT3/4 (proportion of Oct3/4 positive cells among Hoechst 33342 stained cells) (3 days culture): 95.6%

SMILES: C/C(=C\c1ccc(C(=O)O)cc1)c1ccc2c(c1)C(C)(C)CCC2(C)C [TTNPB, 4-[(E)-2-(5,6,7,8-tetrahydro-5,5,8,8-tetramethyl-2-naphthalenyl)-1-propenyl]benzoic acid]
- number of nuclei counted, increase as compared with the medium to which no growth factor was added (−GF): 1.24 times
- expression ratio of OCT3/4 (proportion of Oct3/4 positive cells among Hoechst 33342 stained cells) (3 days culture): 84.2%

SMILES: Cl.O=S(=O)(c1cccc2cnccc12)N1CCNCC1 [HA100, 1-(5-isoquinolinesulfonyl)piperazine hydrochloride]
- number of nuclei counted, increase as compared with the medium to which no growth factor was added (−GF): 1.83 times
- expression ratio of OCT3/4 (proportion of Oct3/4 positive cells among Hoechst 33342 stained cells) (3 days culture): 89.3%
- growth compared with the medium to which a growth factor was added (+GF) (5 μM HA100 in growth-factor-free medium, 3 days culture): growth comparable to that in the case of using the medium to which a growth factor was added
